Test results reported in patent US9497972B2, “Compositions comprising a biological control agent and an insecticide” (priority 2012, dated 2016).

Legend:
Assay type in all cases: in vivo
[1] = test system: Spodoptera frugiperda; experiment: Spodoptera frugiperda spray test, Example D: maize leaf sections
Protocol: (§1) For all examples efficiencies of the compositions comprising at least one BCA and at least one specific insecticide has been determined by the “Colby-formula”: The expected efficacy of a given combination of two compounds is calculated as follows (see Colby, S. R., “Calculating Synergistic and antagonistic Responses of Herbicide Combinations”, Weeds 15, pp. 20-22, 1967):
(§2) If • X is the efficacy expressed in % mortality of the untreated control for test compound A at a concentration of m ppm respectively m g/ha, • Y is the efficacy expressed in % mortality of the untreated control for test compound B at a concentration of n ppm respectively n g/ha, • E is the efficacy expressed in % mortality of the untreated control using the mixture of A and B at m and n ppm respectively m and n g/ha, then is E=X+Y−(X×Y/100)
(§3) If the observed insecticidal efficacy of the combination is higher than the one calculated as “E”, then the combination of the two compounds is more than additive, i.e., there is a synergistic effect.
Spodoptera frugiperda—Spray Test
To produce a suitable preparation of the active compound, 1 part by weight of active compound is mixed with the stated amount of solvent and emulsifier, and the concentrate is diluted with emulsifier-containing water to the desired concentration. To produce a suitable preparation of a spore suspension the spores are diluted with emulsifier-containing water to the desired concentration.
Maize (Zea mais) leaf sections are sprayed with a preparation of the active ingredient of the desired concentration. Once dry, the leaf sections are infested with fall armyworm larvae (Spodoptera frugiperda).
After the specified period of time, mortality in % is determined. 100% means all caterpillars have been killed and 0% means none of the caterpillars have been killed. The mortality values determined thus are recalculated using the Colby-formula (see above).

[2] = test system: Phaedon cochleariae; experiment: Phaedon cochleariae spray test, Example C: Chinese cabbage leaf-disks
Protocol: as §1, §2, §3
Phaedon cochleariae—Spray Test
(§4) To produce a suitable preparation of active compound, 1 part by weight of active compound is mixed with the stated amount of solvent and emulsifier, and the concentrate is diluted with emulsifier-containing water to the desired concentration. To produce a suitable preparation of a spore suspension the spores are diluted with emulsifier-containing water to the desired concentration.
Chinese cabbage (Brassica pekinensis) leaf-disks are sprayed with a preparation of the active ingredient of the desired concentration. Once dry, the leaf disks are infested with mustard beetle larvae (Phaedon cochleariae).
After the specified period of time, mortality in % is determined. 100% means all beetle larvae have been killed and 0% means none of the beetle larvae have been killed. The mortality values determined thus are recalculated using the Colby-formula (see above).

[3] = test system: Tetranychus urticae; experiment: Tetranychus urticae spray test, OP-resistant, Example B: French beans
Protocol: as §1, §2, §3
Tetranychus urticae—Spray Test, OP-Resistant […]
(§5) After the specified period of time, mortality in % is determined. […] The mortality values determined thus are recalculated using the Colby-formula (see above).

[4] = test system: Myzus persicae; experiment: Myzus persicae spray test (MYZUPE), Example A: Chinese cabbage leaf-disks
Protocol: as §1, §2, §3
Myzus persicae—Spray Test (MYZUPE)
as §4
Chinese cabbage (Brassica pekinensis) leaf-disks infected with all instars of the green peach aphid (Myzus persicae), are sprayed with a preparation of the active ingredient of the desired concentration.
After the specified period of time, mortality in % is determined. 100% means all aphids have been killed; 0% means none of the aphids have been killed. The mortality values determined thus are recalculated using the Colby-formula (see above).

[5] = test system: Myzus persicae; experiment: Myzus persicae spray test, Example E: cabbage leaves (Brassica oleracea); conditions: 1 ppm
Protocol: as §1, §2, §3
Myzus persicae—Spray Test […]
as §5

Molecule: Spinetoram [Spinetoram (I150)]
- Efficacy in % after 2^d ([1]; 0.16 g ai/ha): 67%
- Efficacy in % after 6^d ([2]; 0.16 g ai/ha): 0%
- Efficacy in % after 6^d ([2]; 0.8 g ai/ha): 33%

Molecule: Spinosad [Spinosad (I151)]
- Efficacy in % after 6^d ([3]; 4 g ai/ha): 0%
- Efficacy in % after 2^d ([3]; 20 g ai/ha): 50%
- Efficacy in % after 6^d ([1]; 0.16 g ai/ha): 0%
- Efficacy in % after 2^d ([1]; 0.8 g ai/ha): 0%
- Efficacy in % after 6^d ([2]; 4 g ai/ha): 0%
- Efficacy in % after 6^d ([4]; 20 g/ha): 0%

Molecule: CN/C(=N\[N+](=O)[O-])NCc1cnc(Cl)s1 [Clothianidin (I142), Clothianidin]
- Efficacy in % after 2^d ([2]; 20 g ai/ha): 0%
- Efficacy in % after 1^d ([4]; 0.8 g/ha): 70%
- Efficacy in % after 6^d ([4]; 4 g/ha): 70%

Molecule: CN1COCN(Cc2cnc(Cl)s2)/C1=N\[N+](=O)[O-] [Thiamethoxam (I147), Thiamethoxam]
- Efficacy in % after 6^d ([4]; 0.16 g/ha): 0%
- Efficacy in % after 1^d ([4]; 0.4 g/ha): 0%
- Efficacy in % after 1^d ([4]; 2 g/ha): 0%

Molecule: O=[N+]([O-])NC1=NCCN1Cc1ccc(Cl)nc1 [Imidacloprid (I144), Imidacloprid]
- Efficacy in % after 6^d ([4]; 0.032 g/ha): 0%
- Efficacy in % after 1^d ([4]; 0.16 g/ha): 0%
- Efficacy in % after 1^d ([4]; 0.4 g/ha): 70%

Molecule: N#C/N=C1\SCCN1Cc1ccc(Cl)nc1 [Thiacloprid (I146), Thiacloprid]
- Efficacy in % after 1^d [5]: 35%
- Efficacy in % after 6^d ([4]; 0.16 g/ha): 0%
- Efficacy in % after 6^d ([4]; 0.8 g/ha): 70%

Molecule: CC(c1ccc(C(F)(F)F)nc1)S(C)(=O)=NC#N (centres unmarked) [Sulfoxaflor (I149), Sulfoxaflor]
- Efficacy in % after 6^d ([4]; 0.08 g/ha): 70%
- Efficacy in % after 6^d ([4]; 0.4 g/ha): 70%
